In patent US20180228818A1, “PHARMACEUTICAL COMPOSITION COMPRISING ASPRIN, METFORMIN, AND SEROTONIN WITH NON-IONIC SURFACTANT” (ALS MOUNTAIN LLC, priority 2014, published 2018):

Assay: Solubilization test of Poloxamer 188/407 to Aspirin in ethanol
Assay type: physicochemical
Conditions: for Amount Dissolved: 10 ml, room temperature (30° C.)
Method: (1) 0%,10%, 20%, 30%, 40% (m/v) of Poloxamer 188/407 anhydrous ethanol solution were prepared respectively,10 ml of each solution was added into five sealed centrifuge tubes respectively (each centrifuge tube was numbered accordingly).
(2) Each centrifuge tube was added with adequate amount of Aspirin based on the pre-test data (please refer to Table 1: 0 h data), and shaken to dissolution at room temperature (30° C.).
0.1 g of Aspirin would be added into the tube when complete dissolution was observed, then sealed and continued shaking. In cases which the drug was not dissolved, the previous amount of drug dissolved would be recorded as the maximum amount needed for dissolution.
(4) Dissolution observation was continued until some amount of drug compound could not be dissolved.
(5) The observation of each tube was recorded in Table 1

Solubilization Rate (Poloxamer 188 0%): 0% | Amount Dissolved (Poloxamer 188 0% (m/v) in anhydrous ethanol): 2.50 g | Solubilization Rate (Poloxamer 188 10%): 12% | Amount Dissolved (Poloxamer 188 10% (m/v) in anhydrous ethanol): 2.80 g | Solubilization Rate (Poloxamer 188 20%): 20% | Amount Dissolved (Poloxamer 188 20% (m/v) in anhydrous ethanol): 3.00 g | Solubilization Rate (Poloxamer 188 30%): 24% | Amount Dissolved (Poloxamer 188 30% (m/v) in anhydrous ethanol): 3.10 g | Solubilization Rate (Poloxamer 188 40%): 28% | Amount Dissolved (Poloxamer 188 40% (m/v) in anhydrous ethanol): 3.20 g | solubility of Aspirin (Poloxamer 188 and 407 anhydrous ethanol): increases with Poloxamer concentration | Solubilization Rate (Poloxamer 407 0%): 0% | Amount Dissolved (Poloxamer 407 0% (m/v) in anhydrous ethanol): 2.50 g | Solubilization Rate (Poloxamer 407 10%): 12% | Amount Dissolved (Poloxamer 407 10% (m/v) in anhydrous ethanol): 2.80 g | Solubilization Rate (Poloxamer 407 20%): 20% | Amount Dissolved (Poloxamer 407 20% (m/v) in anhydrous ethanol): 3.00 g | Solubilization Rate (Poloxamer 407 30%): 24% | Amount Dissolved (Poloxamer 407 30% (m/v) in anhydrous ethanol): 3.10 g | Solubilization Rate (Poloxamer 407 40%): 28% | Amount Dissolved (Poloxamer 407 40% (m/v) in anhydrous ethanol): 3.20 g
Compound: CC(=O)Oc1ccccc1C(=O)O [Aspirin, acetylsalicylic acid]
